Laboratory results published in paper PMC9486168, “Protein-protein interaction-based high throughput screening for adenylyl cyclase 1 inhibitors: Design, implementation, and discovery of a novel chemotype” (Frontiers in Pharmacology, 2022).
Structures can show the parent of a compound that is named as a salt. Where two headings read alike, the source gives them in different places.

Experiments:
[1] = biological target: T1, AC1/CaM PPI (Homo sapiens, UniProt P0DP23); test: AC1/CaM NanoBiT assay in HEK293T cells; format: cell-based; conditions: HEK293T, thapsigargin-stimulated, AUC; read-out: Nanobit: AC1-CaM IC50 (μM ± SEM)
T1 construct: human AC1 (hAC1) residues 1–1,118 were cloned; The hCaM residues 1–149, residues 1–1,248 of rat AC8 (rAC8); expressed in transfected cells; host or cells: HEK293T, transient transfection

[2] = biological target: T2, AC8-C2b/CaM (Homo sapiens, UniProt P0DP23); test: AC8-C2b/CaM FP counterscreen assay; format: binding; conditions: for Ki / Ki (μM) AC8 C2b: Cheng-Prusoff from FP IC50 and Kd, n/i given where none; for Ki ratio (AC8-C2b/AC1): ratio >1: more potent in AC1/CaM FP;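 as to all read-outs here: fluorescence polarization of AC peptide binding to GST-CaM in HEPES buffer with KCl and 50 µM CaCl2, compound preincubated 30 min with GST-CaM, DMSO and calmidazolium as controls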
T2 construct: made in house; host or cells: E. coli BL21-CodonPlus (DE3)-RIPL

[3] = system: HEK293T cells; test: CellTiter-Glo 2.0 cell viability assay; format: cell-based; conditions: for decrease in cell viability at AC1/CaM IC50: at AC1/CaM NanoBiT IC50; for cell viability reduced at highest concentration tested: 316 μM;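 as to all read-outs here: luminescence read-out after 30 min compound exposure at 37 °C in HEPES-buffered HBSS, scaled to vehicle-treated cells as 100% and cell-free buffer wells as 0%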
[4] = CellTiter-Glo 2.0 cell viability assay; format: cell-based; conditions: human, HEK293T cells, pH 7.4; for viability at 30 min: at the compound's AC1/CaM NanoBiT IC50 concentration, read-out: % Viable Cells at AC1 IC50;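 as to all read-outs here: luminescence read-out after 30 min compound exposure at 37 °C in HEPES-buffered HBSS, scaled to vehicle-treated cells as 100% and cell-free buffer wells as 0%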
[5] = biological target: T3, AC1-C1b/CaM (Homo sapiens, UniProt P0DP23); test: AC1-C1b/CaM fluorescence polarization (FP) assay; format: binding; conditions: for IC50: 100 nM AC1-C1b, 100 nM GST-CaM, 95% CI in brackets; for Ki: Cheng-Prusoff from FP IC50 and Kd; for AC1-CaM FP % inhib: relative to 100 μM CDZ (100% inhibition), highest concentration tested
T3 construct: made in house; host or cells: E. coli BL21-CodonPlus (DE3)-RIPL

[6] = biological target: T4, AC8-Nt/CaM (Homo sapiens, UniProt P0DP23); test: AC8-Nt/CaM FP counterscreen assay; format: binding; conditions: for Ki / Ki (μM) AC8 NT: Cheng-Prusoff from FP IC50 and Kd, n/i given where none; for Ki ratio (AC8 NT/AC1): ratio >1: more potent in AC1/CaM FP;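 as to all read-outs here: fluorescence polarization of AC peptide binding GST-CaM in HEPES buffer with CaCl2, compound preincubated with CaM 30 min, peptide read after 2 h at room temperature in dark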
T4 construct: made in house; host or cells: E. coli BL21-CodonPlus (DE3)-RIPL

[7] = biological target: T5, AC8/CaM PPI (Homo sapiens, UniProt P0DP23); test: AC8/CaM NanoBiT assay in HEK293T cells; format: cell-based, rat; conditions: for IC50: HEK293T, thapsigargin-stimulated, AUC, read-out: Nanobit: AC8-CaM IC50 (μM ± SEM); for fold selective for AC8 over AC1 in the NanoBiT assay: AC8/CaM vs AC1/CaM NanoBiT
T5 construct: confirmed as an AC1/AC8 non-selective hit against full-length AC1- and AC8-CaM in the NanoBiT assay; The hCaM residues 1–149, residues 1–1,248 of rat AC8 (rAC8); expressed in transfected cells; host or cells: HEK293T, transient transfection

[8] = biological target: T6, CaM (Homo sapiens, UniProt P0DP23); test: 1H-15N HSQC NMR of 15N-CaM with compound; format: binding; conditions: 5 equivalent molar excess over 100 μM CaM
T6 construct: 6X-His-GST (N, cleaved yes); made in house; host or cells: E. coli BL21-CodonPlus (DE3)-RIPL in M9 minimal media with 15NH4Cl
Procedure: All NMR samples contained 100 μM ^15N-CaM in 20 mM HEPES pH 7.4, 100 mM KCl, 10 mM CaCl2, 10% D2O, and 5% DMSO. Initial spectra were collected for CaM alone before individual compounds were titrated to observe chemical shift perturbations. All spectra were acquired at 298 K using a 600 MHz Bruker Avance NEO NMR spectrometer with a triple resonance gradient cryoprobe. NMR spectra were processed using NMRPipe and analyzed using NMRFAM-SPARKY.

[9] = biological target: T7, AC1 (Homo sapiens, UniProt Q08828); test: cAMP accumulation assay, AC1-HEK Δ3/6 KO cells; format: cell-based; conditions: for inhibition of AC1 activity (efficacy): initial characterization of hits, data not shown; for inhibition of AC1 activity: CDI analog set, maximal inhibition of A23187 response
T7 construct: expressed in transfected cells
T7 sequence (Q08828 whole entry): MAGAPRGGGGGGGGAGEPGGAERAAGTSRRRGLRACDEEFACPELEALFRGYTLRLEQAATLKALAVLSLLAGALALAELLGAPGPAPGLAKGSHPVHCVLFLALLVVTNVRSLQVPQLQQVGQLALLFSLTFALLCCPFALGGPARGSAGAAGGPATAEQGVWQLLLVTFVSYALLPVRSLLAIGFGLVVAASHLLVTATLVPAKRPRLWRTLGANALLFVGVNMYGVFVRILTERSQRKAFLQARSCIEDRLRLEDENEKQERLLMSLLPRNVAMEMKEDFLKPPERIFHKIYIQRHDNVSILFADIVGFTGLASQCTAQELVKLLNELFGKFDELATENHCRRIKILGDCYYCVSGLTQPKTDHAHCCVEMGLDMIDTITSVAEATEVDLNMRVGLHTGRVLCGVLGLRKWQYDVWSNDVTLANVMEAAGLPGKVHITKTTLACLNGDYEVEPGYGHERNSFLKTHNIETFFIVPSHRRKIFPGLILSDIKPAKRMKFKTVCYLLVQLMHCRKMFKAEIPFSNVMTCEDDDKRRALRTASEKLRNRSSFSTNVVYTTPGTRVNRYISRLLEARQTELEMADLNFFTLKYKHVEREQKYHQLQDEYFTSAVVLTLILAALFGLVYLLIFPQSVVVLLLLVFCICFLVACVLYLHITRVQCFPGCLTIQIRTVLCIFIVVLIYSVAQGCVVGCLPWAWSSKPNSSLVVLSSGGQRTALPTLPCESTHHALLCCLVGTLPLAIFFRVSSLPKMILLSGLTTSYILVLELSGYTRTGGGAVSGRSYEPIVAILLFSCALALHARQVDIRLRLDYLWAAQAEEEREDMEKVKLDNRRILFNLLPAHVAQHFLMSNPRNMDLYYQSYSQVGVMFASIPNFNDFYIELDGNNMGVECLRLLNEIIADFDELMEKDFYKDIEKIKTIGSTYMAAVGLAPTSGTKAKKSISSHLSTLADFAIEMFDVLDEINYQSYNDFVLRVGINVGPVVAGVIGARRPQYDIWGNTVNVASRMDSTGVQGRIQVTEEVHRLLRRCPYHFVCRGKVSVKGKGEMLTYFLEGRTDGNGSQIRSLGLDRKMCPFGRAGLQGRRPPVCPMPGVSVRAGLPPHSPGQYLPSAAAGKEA
Procedure: Cells were then incubated for 1 h at 37°C and 5% CO2. Cells were then treated with varying concentrations of inhibitors for 30 min, followed by treatment with calcium ionophore A23187 (3 μM) in 500 μM 3-isobutyl-1-methylxanthine (IBMX), a phosphodiesterase inhibitor, for 1 h at RT (Sigma Aldrich, St. Louis, MO). Finally, Cisbio HTRF detection reagents were added and incubated for 1–24 h at RT. Plates were read according to manufacturer’s protocol on an HTRF-compatible plate reader at 620 and 665 nm cAMP concentrations were interpolated from a cAMP standard curve. […] For cytotoxicity assays, compounds were tested at 30 μM and this protocol was used with the exception of detection reagents; CellTiter-Glo 2.0 reagent was used according to manufacturer’s protocol and luminescence was read on the Synergy Neo2 plate reader. Data are normalized to cells treated with vehicle (100%) or 2% tween (0%) and are represented as the percent of vehicle, from the average of three independent experiments (N = 3).

[10] = biological target: T8, AC8 (Homo sapiens, UniProt P40145); test: cAMP accumulation assay, AC8-HEK Δ3/6 KO cells; format: cell-based; conditions: CDI analog SAR set, 3 μM A23187; read-out: IC50 (μM) ± SEM AC8
T8 construct: expressed in transfected cells
T8 sequence (P40145 whole entry, species assumed): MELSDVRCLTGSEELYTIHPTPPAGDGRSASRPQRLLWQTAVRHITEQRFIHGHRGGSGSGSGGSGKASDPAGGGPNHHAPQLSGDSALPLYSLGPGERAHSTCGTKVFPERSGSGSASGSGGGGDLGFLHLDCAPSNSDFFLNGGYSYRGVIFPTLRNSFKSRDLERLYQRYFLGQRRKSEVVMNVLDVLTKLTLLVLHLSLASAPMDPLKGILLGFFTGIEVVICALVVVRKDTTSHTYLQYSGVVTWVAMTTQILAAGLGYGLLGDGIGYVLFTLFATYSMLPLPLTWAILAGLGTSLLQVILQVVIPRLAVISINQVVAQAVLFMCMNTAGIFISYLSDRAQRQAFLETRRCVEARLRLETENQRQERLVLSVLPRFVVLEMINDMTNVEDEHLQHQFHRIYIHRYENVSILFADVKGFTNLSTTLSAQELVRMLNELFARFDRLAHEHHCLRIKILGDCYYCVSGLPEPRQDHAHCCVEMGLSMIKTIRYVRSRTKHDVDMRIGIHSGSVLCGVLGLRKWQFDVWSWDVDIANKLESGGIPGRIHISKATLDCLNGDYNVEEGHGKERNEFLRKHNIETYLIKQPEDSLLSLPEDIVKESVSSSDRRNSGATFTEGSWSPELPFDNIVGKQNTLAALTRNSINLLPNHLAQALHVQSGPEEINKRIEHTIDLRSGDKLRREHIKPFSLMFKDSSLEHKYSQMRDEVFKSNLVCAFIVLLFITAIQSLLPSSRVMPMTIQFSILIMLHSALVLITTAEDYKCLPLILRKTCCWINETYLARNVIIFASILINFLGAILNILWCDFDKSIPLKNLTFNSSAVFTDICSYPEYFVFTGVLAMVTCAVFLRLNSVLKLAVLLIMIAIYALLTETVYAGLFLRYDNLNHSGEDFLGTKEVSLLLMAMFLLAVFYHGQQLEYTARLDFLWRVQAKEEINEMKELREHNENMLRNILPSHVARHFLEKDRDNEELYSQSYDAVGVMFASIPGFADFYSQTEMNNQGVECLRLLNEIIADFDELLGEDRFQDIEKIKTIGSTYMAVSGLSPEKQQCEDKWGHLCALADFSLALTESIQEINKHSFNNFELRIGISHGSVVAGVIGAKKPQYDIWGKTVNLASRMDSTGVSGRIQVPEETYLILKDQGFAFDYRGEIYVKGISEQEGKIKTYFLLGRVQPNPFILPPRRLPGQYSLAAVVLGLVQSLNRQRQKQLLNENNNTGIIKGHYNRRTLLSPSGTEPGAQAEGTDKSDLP
Procedure: (§1) Cryopreserved HEK293 cells with AC3 and AC6 knocked out, and stably expressing AC1, AC2, AC5, or AC8 (AC1-HEK Δ3/6 KO, AC2-HEK Δ3/6 KO, AC5-HEK Δ3/6 KO, or AC8-HEK Δ3/6 KO cells, respectively; [Soto-Velasquez et al., 2018]) were plated at 5,000 cells/well. Cells were then incubated for 1 h at 37°C and 5% CO2. Cells were then treated with varying concentrations of inhibitors for 30 min, followed by treatment with calcium ionophore A23187 (3 μM) in 500 μM 3-isobutyl-1-methylxanthine (IBMX), a phosphodiesterase inhibitor, for 1 h at RT (Sigma Aldrich, St. Louis, MO). Finally, Cisbio HTRF detection reagents were added and incubated for 1–24 h at RT. Plates were read according to manufacturer’s protocol on an HTRF-compatible plate reader at 620 and 665 nm cAMP concentrations were interpolated from a cAMP standard curve. […] For cytotoxicity assays, compounds were tested at 30 μM and this protocol was used with the exception of detection reagents; CellTiter-Glo 2.0 reagent was used according to manufacturer’s protocol and luminescence was read on the Synergy Neo2 plate reader. Data are normalized to cells treated with vehicle (100%) or 2% tween (0%) and are represented as the percent of vehicle, from the average of three independent experiments (N = 3).

[11] = biological target: T9, AC5 (Homo sapiens, UniProt O95622); test: cAMP accumulation assay, AC5-HEK Δ3/6 KO cells; format: cell-based; conditions: for inhibition at 30 µM: read-out: % Inhibited at AC5 ± SEM
T9 construct: expressed in transfected cells
T9 sequence (O95622 whole entry, species assumed): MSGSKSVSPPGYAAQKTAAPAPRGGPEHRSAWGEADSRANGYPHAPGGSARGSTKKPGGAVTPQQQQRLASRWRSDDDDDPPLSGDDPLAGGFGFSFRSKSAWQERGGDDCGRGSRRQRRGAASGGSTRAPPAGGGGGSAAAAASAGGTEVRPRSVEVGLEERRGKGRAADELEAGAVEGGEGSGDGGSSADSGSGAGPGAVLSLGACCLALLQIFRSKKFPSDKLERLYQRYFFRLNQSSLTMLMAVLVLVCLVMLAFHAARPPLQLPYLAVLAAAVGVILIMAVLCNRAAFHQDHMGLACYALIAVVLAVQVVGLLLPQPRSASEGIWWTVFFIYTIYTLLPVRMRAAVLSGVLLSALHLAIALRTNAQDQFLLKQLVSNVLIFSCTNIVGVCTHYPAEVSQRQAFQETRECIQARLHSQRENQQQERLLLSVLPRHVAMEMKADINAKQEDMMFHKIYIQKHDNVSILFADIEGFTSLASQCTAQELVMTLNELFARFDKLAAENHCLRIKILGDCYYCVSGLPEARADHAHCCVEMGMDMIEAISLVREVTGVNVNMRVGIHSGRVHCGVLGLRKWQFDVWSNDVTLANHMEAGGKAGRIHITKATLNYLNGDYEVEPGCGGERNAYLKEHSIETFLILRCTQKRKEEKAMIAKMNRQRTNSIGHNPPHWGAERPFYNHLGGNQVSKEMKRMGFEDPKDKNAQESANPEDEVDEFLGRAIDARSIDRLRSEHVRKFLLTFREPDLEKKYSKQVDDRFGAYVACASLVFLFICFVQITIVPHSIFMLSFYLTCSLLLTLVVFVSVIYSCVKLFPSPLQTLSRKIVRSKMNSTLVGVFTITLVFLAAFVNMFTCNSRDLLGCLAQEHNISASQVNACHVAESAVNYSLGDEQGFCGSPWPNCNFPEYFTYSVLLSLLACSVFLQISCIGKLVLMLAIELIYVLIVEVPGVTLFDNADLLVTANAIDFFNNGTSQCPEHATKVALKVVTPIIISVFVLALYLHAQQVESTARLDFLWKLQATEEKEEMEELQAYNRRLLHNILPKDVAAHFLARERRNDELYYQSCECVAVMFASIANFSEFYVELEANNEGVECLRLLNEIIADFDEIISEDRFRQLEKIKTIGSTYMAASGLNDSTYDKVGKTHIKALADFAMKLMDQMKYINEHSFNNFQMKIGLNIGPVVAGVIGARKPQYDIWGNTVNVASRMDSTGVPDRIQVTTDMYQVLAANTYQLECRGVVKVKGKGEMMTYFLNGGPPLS
Procedure: as §1

[12] = biological target: T10, AC2 (Homo sapiens, UniProt Q08462); test: cAMP accumulation assay, AC2-HEK Δ3/6 KO cells; format: cell-based; conditions: for % Inhibited at AC2 ± SEM: 30 μM; for inhibition at 30 µM: read-out: % Inhibited at AC2 ± SEM
T10 construct: expressed in transfected cells
T10 sequence (Q08462 whole entry): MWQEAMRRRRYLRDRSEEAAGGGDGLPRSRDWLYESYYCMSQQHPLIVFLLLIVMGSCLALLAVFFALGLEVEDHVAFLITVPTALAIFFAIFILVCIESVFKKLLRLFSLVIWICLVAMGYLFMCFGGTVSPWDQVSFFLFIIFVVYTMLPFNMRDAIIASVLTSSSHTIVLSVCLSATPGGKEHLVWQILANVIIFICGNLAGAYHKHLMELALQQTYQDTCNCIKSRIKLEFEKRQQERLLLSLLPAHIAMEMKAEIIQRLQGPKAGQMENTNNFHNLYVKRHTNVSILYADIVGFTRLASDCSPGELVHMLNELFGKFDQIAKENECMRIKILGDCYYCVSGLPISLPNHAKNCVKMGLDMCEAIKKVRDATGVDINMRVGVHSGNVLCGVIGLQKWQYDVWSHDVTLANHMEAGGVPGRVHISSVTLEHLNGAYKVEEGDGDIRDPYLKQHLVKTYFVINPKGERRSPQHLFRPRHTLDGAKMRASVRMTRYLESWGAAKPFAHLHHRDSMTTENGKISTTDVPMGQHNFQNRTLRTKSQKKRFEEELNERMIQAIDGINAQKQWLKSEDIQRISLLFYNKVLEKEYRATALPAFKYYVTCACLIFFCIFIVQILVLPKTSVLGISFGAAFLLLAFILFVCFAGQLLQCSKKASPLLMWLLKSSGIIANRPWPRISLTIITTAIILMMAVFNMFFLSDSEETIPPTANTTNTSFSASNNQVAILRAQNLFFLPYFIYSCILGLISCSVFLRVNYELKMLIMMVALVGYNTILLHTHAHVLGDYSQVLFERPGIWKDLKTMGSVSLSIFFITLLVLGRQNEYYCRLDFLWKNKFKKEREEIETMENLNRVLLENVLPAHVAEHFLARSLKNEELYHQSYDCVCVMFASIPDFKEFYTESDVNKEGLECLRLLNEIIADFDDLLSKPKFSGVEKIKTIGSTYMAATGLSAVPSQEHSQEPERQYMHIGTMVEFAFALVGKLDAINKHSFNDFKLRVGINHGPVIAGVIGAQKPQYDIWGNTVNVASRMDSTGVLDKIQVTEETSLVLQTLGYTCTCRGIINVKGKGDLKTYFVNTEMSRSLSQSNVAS
Procedure: as §1

[13] = Cytotoxicity assay (CellTiter-Glo 2.0) in AC1-HEK Δ3/6 KO cells; format: cell-based; conditions: human, percent of vehicle, read-out: % Viable Cells at AC1 30 μM
Procedure: as §1

[14] = initial examination, 10,000 cells per well, 3 μM A23187, 1 h RT, read-out: AC1 IC50 ± SEM
[15] = CDI analog SAR set, 3 μM A23187, read-out: IC50 (μM) ± SEM AC1

| Compound | IC50 [1] [µM] | Ki [2] [µM] | Ki ratio (AC8-C2b/AC1) [2] | decrease in cell viability at AC1/CaM IC50 [3] | viability at 30 min [4] [%] | IC50 [5] [µM] | Ki [5] [µM] | Ki [6] [µM] | Ki ratio (AC8 NT/AC1) [6] | IC50 [7] [µM] | AC1-CaM FP % inhib [5] [%] | further results |
| --- | --- | --- | --- | --- | --- | --- | --- | --- | --- | --- | --- | --- |
| Cc1cc2nc3ccc(N(C)C)cc3[s+]c2cc1N [Compound 1, Tolonium Chloride] | 32.9 ± 1.01 | 0.44 | 1.5 | greater than 10% | 80 | 1.24 | 0.29 | 2.3 | 7.9 | 8.4 ± 1.19 | – | – |
| CCCCC(CC)CNC(=N)NC(=N)NCCCCCCNC(=N)NC(=N)NCC(CC)CCCC (centres unmarked) [Compound 3, Alexidine] | 17.9 ± 1.15 | 2.6 | 3.9 | 25% | 75 | 2.8 | 0.67 | 1.1 | 1.6 | 16.5 ± 1.15 | 103 | decrease in cell viability at 100 μM ([3]; 100 μM): 70% |
| CCCCCCCCOc1ccccc1C(=O)Nc1ccc(C(=O)OCC[N+](C)(CC)CC)cc1 [Compound 7, Otilonium] | 18.8 ± 1.16 | 10.3 | 2.5 | – | 96 | 17.1 | 4.1 | 6.3 | 1.6 | 12.8 ± 1.22 | 92 | cell viability reduced at highest concentration tested [3]: ~50% |
| [H]/N=C(\N/C(=N/[H])NCCCCCCNC(=N)NC(=N)Nc1ccc(Cl)cc1)Nc1ccc(Cl)cc1 [Compound 9, Chlorhexidine HCl] | 111 ± 1.23 | 20.8 | 4.0 | greater than 10% | 80 | 22 | 5.2 | 13.8 | 2.7 | 47.1 ± 1.35 | 15 | – |
| O=C1c2c(O)ccc(O)c2C(=O)c2c(NCCNCCO)ccc(NCCNCCO)c21 [Compound 11, Mitoxantrone HCl] | 44 ± 1.15 | 8.2 | 1.3 | greater than 10% | 87 | 27.5 | 6.5 | 41.1 | 6.3 | 29.8 ± 1.18 | 40 | – |
| CC(=O)Oc1c(Sc2ccc(Cl)cc2)c(C)nn1C(C)(C)C [Compound 13] | 16.1 ± 1.13 | – | AC1 Selective | – | 96 | 73.5 | 17.4 | – | AC1 Selective | 13.1 ± 1.19 | – | Ki (μM) AC8 C2b [2]: n/i; chemical shift perturbations (CSP) of 15N-CaM [8]: largest CSPs; cell viability reduced at highest concentration tested [3]: ~50%; cell viability at ∼300 μM ([3]; ∼300 μM): decrease in cell viability; Ki (μM) AC8 NT [6]: n/i; IC50 [9, 14]: 31 ± 6.63 µM |
| O=S(=O)(Nc1ccc2c(c1)N(S(=O)(=O)c1ccc(F)cc1)CCC2)c1cccc(F)c1 [Compound 18] | 16.1 ± 1.12 | – | AC1 Selective | – | 100 | 38.4 | 9.1 | – | AC1 Selective | 5.71 ± 1.22 | 54 | Ki (μM) AC8 C2b [2]: n/i; chemical shift perturbations (CSP) of 15N-CaM [8]: modest chemical shift changes; viability at 30 min, 316 µM ([4]; 316 μM, read-out: cell viability at highest concentration tested): 90%; Ki (μM) AC8 NT [6]: n/i; fold selective for AC8 over AC1 in the NanoBiT assay [7]: ~3 fold; inhibition of AC1 activity (efficacy) [9]: ~70%; IC50 [9, 14]: 6.7 ± 0.7 µM |
| Cn1cc(C(=O)Nc2ccc(Cl)cc2Cl)c2[nH]c(=O)n(-c3ccc(Cl)cc3)c(=O)c21 [Compound 21] | 25.6 ± 1.42 | – | AC1 Selective | – | 100 | 9.9 | – | – | AC1 Selective | 6.8 ± 1.19 | 59 | Ki (μM) AC8 C2b [2]: n/i; chemical shift perturbations (CSP) of 15N-CaM [8]: modest chemical shift changes; Ki (μM) AC8 NT [6]: n/i; fold selective for AC8 over AC1 in the NanoBiT assay [7]: 2- to 4 fold; inhibition of AC1 activity (efficacy) [9]: ~50%; IC50 [9, 14]: 8.77 ± 4.47 µM |
| CCc1cc(C(c2cccs2)N2CCC(C)CC2)c(NC(=O)c2ccco2)s1 (centres unmarked) [Compound 24] | – | – | – | – | – | – | – | – | – | – | – | IC50 [10]: 2.7 ± 0.24 µM; % Inhibited at AC5 ± SEM ([11]; 30 μM): 16 ± 11%; inhibition at 30 µM [11]: < 16%; % Inhibited at AC2 ± SEM [12]: 15 ± 11%; inhibition at 30 µM [12]: < 16%; viability at 30 min, 30 μM [13]: 77%; IC50 [9, 15]: 2.75 ± 0.82 µM; inhibition of AC1 activity [9]: 100% |
| Cc1cc(C(c2cccs2)N2CCN(C)CC2)c(NC(=O)c2ccco2)s1 (centres unmarked) [Compound 25] | – | – | – | – | – | – | – | – | – | – | – | IC50 [10]: 8.85 ± 2.7 µM; inhibition at 30 µM [11]: 46 ± 5%; inhibition at 30 µM [12]: 52 ± 11%; viability at 30 min, 30 μM [13]: 94%; IC50 [9, 15]: 6.39 ± 0.89 µM; inhibition of AC1 activity [9]: 100% |
| O=C(Nc1sc2c(c1C(c1cccs1)N1CCOCC1)CCCC2)c1ccco1 (centres unmarked) [Compound 32] | – | – | – | – | – | – | – | – | – | – | – | IC50 [10]: 1.86 ± 0.32 µM; % Inhibited at AC2 ± SEM [12]: 10 ± 8%; inhibition at 30 µM [12]: < 16%; viability at 30 min, 30 μM [13]: 100%; IC50 [9, 15]: 0.89 ± 0.04 µM; inhibition of AC1 activity [9]: 100% |
